The IC50 is the concentration that inhibits the measured activity by half. A higher IC50 goes with lower potency.

Data set [1] relates to Trypanosoma brucei. In words: Antitrypanosomal activity against bloodstream form of Trypanosoma brucei 427 after 48 hrs by MTS assay. The conditions noted are these: Trypanosoma brucei, 427, 48 h. Type of data set: functional, organism-based.
The nature of data set [2]: Selectivity ratio of IC50 for human SKBR3 cells to IC50 for bloodstream form of Trypanosoma brucei 427. Type of data set: ADME, cell-based, SK-BR-3. The conditions noted are these: read-out: Ratio IC50.
Data set [3] has as its system SK-BR-3. The experiment in a line: Growth inhibition of human SKBR3 cells after 48 hrs by MTT assay. The data set is classed as cell-based. The conditions noted are these: SK-BR-3, 48 h. A general note: Tetrazolium assays rely on reduction of a dye to a coloured formazan, in cell work by metabolically active cells.

`Cc1ccc(C)c(COc2cc(NC(=O)c3ccc4c(c3)OCO4)ccc2N(C)S(C)(=O)=O)c1` yielded an IC50 in data set [1] of 3.22 µM. Besides, the selectivity ratio in data set [2] was determined as 0.1. The like results for `COc1ccc(CC(=O)Nc2ccc(N(C)S(C)(=O)=O)c(OCc3cc(C)ccc3C)c2)cc1OC` were, in that order, 6.85 µM and 5. `Cc1ccc(C)c(COc2cc(NC(=O)Cc3ccccc3)ccc2N(C)S(C)(=O)=O)c1` came in with an IC50 in data set [1] of 51.3 µM. For the same compound, the selectivity ratio in data set [2] is 2.3.

In data set [1], `CN(c1ccc(NC(=O)c2ccc(Cl)c([N+](=O)[O-])c2)cc1OCc1ccccc1)S(C)(=O)=O` registered an IC50 of 2.3 µM. For the same compound, in data set [2], the selectivity ratio stood at 4. In turn, `CN(c1ccc(NC(=O)c2ccc(C#N)cc2)cc1OCc1ccccc1)S(C)(=O)=O` came in with an IC50 in data set [1] of 2.8 µM. For the same compound, in data set [2], the selectivity ratio was found to be 6. The corresponding values for `Cc1ccc(C)c(COc2cc(NC(=O)c3ccccc3)ccc2N(C)S(C)(=O)=O)c1` are 6.44 µM and 0.6. Turning to `COc1ccc(S(=O)(=O)Nc2cccnc2Nc2ccc(O)cc2)cc1` [ABT-751], the IC50 turned out to be 82.1 µM in data set [1] and 0.74 µM in data set [3]. As to `O=C(Nc1ccncc1)C(=O)c1cn(Cc2ccc(Cl)cc2)c2ccccc12` [INDIBULIN], the IC50 in data set [1] was found to be 114 µM; in data set [3] it was 0.033 µM. The corresponding values for `COC(=O)Nc1nc2cc(C(=O)c3cccs3)ccc2[nH]1` [NOCODAZOLE] are 44.2 µM and 0.084 µM. As to `CC(=O)O[C@H]1C(=O)[C@@]2(C)[C@H]([C@H](OC(=O)c3ccccc3)[C@]3(O)C[C@H](OC(=O)[C@H](O)[C@@H](NC(=O)c4ccccc4)c4ccccc4)C(C)=C1C3(C)C)[C@]1(OC(C)=O)CO[C@@H]1C[C@@H]2O` [PACLITAXEL], the IC50 in data set [1] was 0.0046 µM.

For `CC[C@]1(O)C[C@@H]2CN(CCc3c([nH]c4ccccc34)[C@@](C(=O)OC)(c3cc4c(cc3OC)N(C)[C@H]3[C@@](O)(C(=O)OC)[C@H](OC(C)=O)[C@]5(CC)C=CCN6CC[C@]43[C@@H]65)C2)C1` [VINBLASTINE], the IC50 in data set [1] was 0.41 µM; in data set [3] it was 0.00091 µM.

These data come from ChEMBL document CHEMBL2069209, “Identification of selective tubulin inhibitors as potential anti-trypanosomal agents” (Bioorg Med Chem Lett, 2012).
